We go through 27 molecules from ChEMBL document CHEMBL5360574, “Optimization of potent, selective and orally bioavailable biphenyl scaffold as FABP4 inhibitors for anti-inflammation” (Eur J Med Chem, 2023).

The source made the active and inactive calls.

In data set [1] the target is Fatty acid-binding protein, adipocyte (Homo sapiens, UniProt P15090). Put plainly: Displacement of 1,8-ANS from FABP4 (unknown origin) assessed as inhibition constant by fluorescence based analysis.
Data set [2] can be described thus: Metabolic stability in mouse liver microsomes assessed as half life at 0.1 uM measured upto 60 mins in presence of NADPH by LC-MS/MS analysis. It is filed as ADME, Microsome. (In general: Liver microsomes are a subcellular fraction often used to study metabolism.)
Data set [3] deals with THP-1. Put plainly: Antiinflammatory activity in LPS-induced human THP-1 cells assessed as reduction in MCP-1 mRNA expression at 25 uM incubated for 24 hrs by RT-PCR analysis. It is filed as functional, cell-based.
The subject of data set [4] is THP-1. Kind of data set: Cytotoxicity against human THP-1 cells assessed as reduction in cell growth at 80 uM measured after 24 hrs by CCK-8 assay. Format: toxicity, cell-based. As to conditions: thp-1, 24 h.
Data set [5] can be described thus: Metabolic stability in mouse liver microsomes assessed as intrinsic clearance at 0.1 uM measured upto 60 mins in presence of NADPH by LC-MS/MS analysis. As to conditions: 1 h. Format: ADME, Microsome.
Data set [6] has as its system 3T3-L1. Kind of data set: Cytotoxicity against mouse 3T3-L1 cells assessed as reduction in cell growth at 100 uM measured after 24 hrs by CCK-8 assay. It is filed as toxicity, cell-based. As to conditions: 3t3-l1, 24 h. (Formazan colour is commonly taken as a measure of viable cells.)
Data set [7] in a line: Metabolic stability in mouse liver microsomes assessed as intrinsic clearance at 0.1 uM measured per gram protein measured upto 60 mins in presence of NADPH by LC-MS/MS analysis. Format: ADME, Microsome. As to conditions: 1 h.
The target in data set [8] is Fatty acid-binding protein, heart (Homo sapiens, UniProt P05413). Put plainly: Displacement of 1,8-ANS from FABP3 (unknown origin) assessed as inhibition constant by fluorescence based analysis.
Fatty acid-binding protein, heart, sequence (P05413 whole entry): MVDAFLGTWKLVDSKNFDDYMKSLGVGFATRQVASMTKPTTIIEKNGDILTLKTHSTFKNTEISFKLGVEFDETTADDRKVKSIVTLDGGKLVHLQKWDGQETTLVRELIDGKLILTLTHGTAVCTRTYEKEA
Data set [9] concerns Mus musculus. Put plainly: Antiinflammatory activity in LPS-induced acute inflammation C57BL/6J mouse model assessed as reduction in MCP-1 level in serum at 50 mg/kg, po qd via gavage administered for 4 days followed by LPS induction. As to conditions: time 4.0 day. Format: functional, organism-based.
A short description of data set [10]: Toxicity in LPS-induced acute inflammation C57BL/6J mouse model assessed as effect on spleen damage at 50 mg/kg, po qd via gavage administered for 4 days followed by LPS induction by hematoxylin and eosin staining based microscopic analysis. Format: organism-based. Particulars: in vivo, 96 h, time 4 day.
The subject of data set [11] is Mus musculus. Kind of data set: Antiinflammatory activity in LPS-induced acute inflammation C57BL/6J mouse model assessed as reduction in ALT level in serum at 50 mg/kg, po qd via gavage administered for 4 days followed by LPS induction. It is filed as functional, organism-based. Particulars: time 4.0 day.
Data set [12] is described as follows: Clearance in ICR mouse at 3 mg/kg, iv measured upto 24 hrs by LC-MS/MS analysis. Format: ADME, organism-based. Particulars: in vivo.
The nature of data set [13]: AUC(0 to 24 hrs) in ICR mouse at 25 mg/kg, po measured upto 24 hrs by LC-MS/MS analysis. Format: ADME, organism-based. On the set-up: time < 24 hrs, dose 25 mg/kg, route po. As to conditions: in vivo.
The nature of data set [14]: AUC(0 to 24 hrs) in ICR mouse at 3 mg/kg, iv measured upto 24 hrs by LC-MS/MS analysis. It is filed as ADME, organism-based. On the set-up: dose 3 mg/kg, time < 24 hrs, route iv. Particulars: in vivo.
Data set [15] is described as follows: Tmax in ICR mouse at 25 mg/kg, po measured upto 24 hrs by LC-MS/MS analysis. Format: ADME, organism-based. Particulars: in vivo.
Data set [16] is described as follows: MRT in ICR mouse at 25 mg/kg, po measured upto 24 hrs by LC-MS/MS analysis. It is filed as ADME, organism-based. Particulars: in vivo.
The test system of data set [17] is Mus musculus. Put plainly: Antiinflammatory activity in LPS-induced acute inflammation C57BL/6J mouse model assessed as reduction in AST level in serum at 50 mg/kg, po qd via gavage administered for 4 days followed by LPS induction. It is filed as functional, organism-based. As to conditions: time 4.0 day.
Data set [18] in a line: Toxicity in LPS-induced acute inflammation C57BL/6J mouse model assessed as change in body weight at 50 mg/kg, po qd via gavage administered for 4 days followed by LPS induction. Particulars: in vivo, 96 h, time 4 day. Format: organism-based.
A short description of data set [19]: MRT in ICR mouse at 3 mg/kg, iv measured upto 24 hrs by LC-MS/MS analysis. Particulars: in vivo. It is filed as ADME, organism-based.
The nature of data set [20]: Half life in ICR mouse at 25 mg/kg, po measured upto 24 hrs by LC-MS/MS analysis. Particulars: in vivo. It is filed as ADME, organism-based.
The nature of data set [21]: Cmax in ICR mouse at 25 mg/kg, po measured upto 24 hrs by LC-MS/MS analysis. Format: ADME, organism-based. Further details: dose 25 mg/kg, time < 24 hrs, route po. Particulars: in vivo.
In data set [22] the test system is THP-1. Kind of data set: Antiinflammatory activity in LPS-induced human THP-1 cells assessed as inhibition of MCP-1 secretion at 1 uM pre-incubated with compound for 18 hrs followed by LPS induction measured after 6 hrs by ELISA method. It is filed as functional, cell-based. As to conditions: time 24.0 hrs. In general terms: ELISA stands for enzyme-linked immunosorbent assay.

The nature of data set [23]: Volume of distribution at steady state in ICR mouse at 3 mg/kg, iv measured upto 24 hrs by LC-MS/MS analysis. It is filed as ADME, organism-based. As to conditions: in vivo, read-out: Vdss.
The nature of data set [24]: Toxicity in LPS-induced acute inflammation C57BL/6J mouse model assessed as effect on liver damage at 50 mg/kg, po qd via gavage administered for 4 days followed by LPS induction by hematoxylin and eosin staining based microscopic analysis. Format: organism-based. Particulars: in vivo, 96 h, time 4 day.
Data set [25] is described as follows: Oral bioavailability in ICR mouse at 25 mg/kg measured upto 24 hrs by LC-MS/MS analysis. As to conditions: in vivo. It is filed as ADME, organism-based.
A short description of data set [26]: Half life in ICR mouse at 3 mg/kg, iv measured upto 24 hrs by LC-MS/MS analysis. As to conditions: in vivo. Format: ADME, organism-based.

Fatty acid-binding protein, adipocyte, sequence (P15090 whole entry): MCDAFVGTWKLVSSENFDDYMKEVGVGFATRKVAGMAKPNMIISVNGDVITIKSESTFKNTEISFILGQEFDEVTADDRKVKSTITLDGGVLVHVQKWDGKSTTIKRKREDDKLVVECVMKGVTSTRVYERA

In the case of `O=C(O)c1cc(-c2cccc(Cl)c2-c2ccc3occc3c2)ccc1C(F)(F)F`, the Ki in [1] worked out at 720 nM.
Consider `O=C(O)C1CCc2ccc(-c3cccc(Cl)c3-c3ccc4c(c3)OCO4)cc21` (centres undefined), for which, in data set [1], the Ki was found to be 790 nM.
Still for that read-out and setting: the same measure for `O=C(O)C1CCc2ccc(-c3cccc(Cl)c3-c3ccc4nonc4c3)cc21` (centres undefined): 2370 nM; for `Nc1ccc(-c2cccc(Cl)c2-c2ccc3c(c2)CCO3)cc1C(=O)O`: 430 nM.
Consider `O=C(O)C1CCc2ccc(-c3cccc(Cl)c3-c3ccc4c(c3)CCO4)cc21` (centres undefined), for which the figures for the inhibitory constant (Ki) in data set [1] and in data set [8] were 580 nM and 18.1 µM, respectively. Moreover, the half-life at 0.1 µM in data set [2] came to 53 min. In addition, in [3], the result was Active. For the same molecule, the Activity result in data set [4] and in [6] was “Non-Toxic” throughout. In addition, the results for the CLH in [5] and in data set [7] were 2.66 mL/min and 39.4 mL/min/g, respectively.
Regarding `O=C(O)c1cc(-c2cccc(Cl)c2-c2ccc3c(c2)CCO3)ccc1C(F)(F)F`, the Ki in data set [1] amounted to 510 nM; in data set [8], 33 µM. The half-life at 0.1 µM in [2] was 534 min. For the same molecule, the outcome in data set [9], in [3], in data set [11], in data set [17] and in [22] was Active. Besides, the Activity entry in data set [10], in data set [4], in [6], in data set [18] and in data set [24] was “Non-Toxic” each time. Besides, the CLH in data set [5] stood at 0.266 mL/min; in data set [7] it was 3.94 mL/min/g. Also, the clearance in data set [12] is 12.5 mL/min/kg. In addition, the exposure AUC(0-t) at 24 h in data set [13] is 26800 ng·h/mL; in data set [14], 3600 ng·h/mL. Moreover, in data set [15], the Tmax stood at 15 min. Further, the MRT in [16] came out at 5.3 h; in data set [19], 4.04 h. Besides, the results for the half-life in data set [20] and in data set [26] were 206 min and 338 min, respectively. The molecule further came in with a maximum concentration (Cmax) in data set [21] of 15500 ng/mL. For the same molecule, the Vd in data set [23] turned out to be 3.32 L/kg. This molecule returned a bioavailability in data set [25] of 89.4%.
For `O=C(O)C1CCc2ccc(-c3cccc(Cl)c3-c3ccc4[nH]ncc4c3)cc21` (centres undefined), in data set [1], the inhibitory constant (Ki) was determined as 760 nM.
On the same count and under the same terms, the same measure for `Cc1ccc(-c2cccc(Cl)c2-c2ccc3c(c2)CCO3)cc1C(=O)O`: 320 nM; for `O=C(O)Cc1cccc(-c2cccc(Cl)c2-c2ccc3c(c2)CCO3)c1`: 350 nM; for `O=C(O)C1CCc2ccc(-c3cccc(Cl)c3OCc3ccccc3)cc21` (centres undefined): 1320 nM.
On to `CCc1c(-c2ccccc2)c(-c2ccccc2)nn1-c1ccccc1-c1cccc(OCC(=O)O)c1`, for which the outcome in data set [9], in data set [3], in data set [11] and in [17] was Active. The Activity entry in [10], in data set [4], in data set [6], in data set [18] and in data set [24] was “Non-Toxic” in each case.
With `O=C(O)c1cccc(-c2cccc(Cl)c2-c2ccc3c(c2)CCO3)c1`, the Ki in data set [1] was found to be 480 nM.
`O=C(O)c1cc(-c2cccc(Cl)c2-c2ccc3c(c2)CCO3)ccc1[N+](=O)[O-]`: the inhibitory constant (Ki) in [1] came out at 300 nM.
Still for that read-out and setting: the same measure for `CS(=O)(=O)Nc1ccc(-c2cccc(Cl)c2-c2ccc3c(c2)CCO3)cc1C(=O)O`: 330 nM; for `O=C(O)C1CCc2ccc(-c3cccc(Cl)c3OCC3CCCC3)cc21` (centres undefined): 1730 nM.
Still for that read-out and setting: as for `O=C(O)C1CCc2ccc(-c3cccc(Cl)c3OCC3CCCCC3)cc21` (centres undefined), the figure is 1800 nM; as for `CC(C(=O)O)c1cccc(-c2cccc(Cl)c2-c2ccc3c(c2)CCO3)c1` (centres undefined), 1470 nM; as for `O=C(O)c1cc(O)cc(-c2cccc(Cl)c2-c2ccc3c(c2)CCO3)c1`, 550 nM.
Turning to `O=C(O)c1cc(-c2cccc(Cl)c2-c2ccc3c(c2)CCO3)ccc1O`, the inhibition constant (Ki) in [1] stood at 280 nM.
For `O=C(O)C1CCc2ccc(-c3cccc(Cl)c3OCC3CCC3)cc21` (centres undefined), the inhibitory constant (Ki) in [1] came to 750 nM.
Same read-out and setting: the same measure for `O=C(O)C1CCc2ccc(-c3cccc(Cl)c3-c3ccc4occc4c3)cc21` (centres undefined): 690 nM.
Turning to `O=C(O)CCc1cccc(-c2cccc(Cl)c2-c2ccc3c(c2)CCO3)c1`, in [1], the Ki turned out to be 1810 nM.
On to `O=C(O)c1ccccc1Nc1cccc(Cl)c1-c1ccc2c(c1)CCO2`, for which the Activity result in [4] and in data set [6] was “Non-Toxic” each time. Besides, the inhibition constant Ki in data set [8] came out at 0.92 µM.
For `O=C(O)c1cc(-c2cccc(Cl)c2-c2ccc3c(c2)OCO3)ccc1C(F)(F)F`, the inhibition constant (Ki) in data set [1] was 1690 nM.
On the same count and under the same terms, as for `O=C(O)C1CCc2ccc(-c3cccc(Cl)c3OC3CCC3)cc21` (centres undefined), the figure is 790 nM; as for `O=C(O)c1cc(-c2cccc(Cl)c2-c2ccc3nonc3c2)ccc1C(F)(F)F`, 920 nM.
The same measure, in the same setting: as for `O=C(O)C1CCc2ccc(-c3cccc(Cl)c3-c3ccc4ocnc4c3)cc21` (centres undefined), the figure is 740 nM.

Broadly, the Ki is the equilibrium dissociation constant of an inhibitor or competing ligand from its target. What is called half-life is the time needed for the level to fall by half in the phase considered. A word on the clearance: it is the rate of elimination divided by the concentration. One may read the AUC(0-t) as exposure summed from dosing to a finite time, without extrapolation to infinity. Low readings indicate low exposure, high ones high exposure. Broadly, the Tmax is the time from dosing to the highest level. One may read the MRT as a mean duration of stay, worked out from the concentration-time curve. Broadly, the Cmax is the highest concentration seen after dosing. Usually bioavailability stands for dose-corrected exposure relative to a reference, in per cent. Low readings indicate poor availability, high ones good availability.
